Measurements reported in patent publication US20240118280A1 (priority 2022, published 2024).
“Also recorded” adds a separate entry of the source.

Molecular target: T1, human EGFR kinase (Homo sapiens, UniProt P00533)
T1 construct: The EGFR kinase domain is incubated with Ibrutinib-yne or a DMSO control at 37° C. for 1 hour; made in house
Test: Activity-based protein fingerprinting: covalent labelling of EGFR kinase by chemical probe (PAGE, fluorescent imaging, LC-MS)
Type: binding
Description: The EGFR kinase domain is incubated with Ibrutinib-yne or a DMSO control at 37° C. for 1 hour. The EGFR kinase domain bound to Ibrutinib-yne is exposed to cysteine reduction and capping using TCEP and chloroacetamide at 37° C. for 1 hour. The product is desalted with a 7 kDa zeba column and exposed to proteolytic digestion by trypsin at 37° C. for 16 hours. The product is further conjugated with bis-biotin-DNA-SS-azide at room temperature for 30 minutes and finally exposed to DTT at 65° C. for 10 minutes.
FIGS. 5A-5C show LC-MS plots of DMSO control (FIG. 5A), Ibrutinib-yne (FIG. 5B), and Ibrutinib-yne with a DNA control molecule and DTT (FIG. 5C). The blue box represents unmodified peptide, the green box represents peptide bound to Ibrutinib-yne, and the red box represents peptide-Ibrutinib-yne-DNA adduct following disulfide reduction.
Using the steps of Example 1, EGFR kinase was detected using activity-based protein fingerprinting. The commercially available drug analog Ibrutinib-yne, which binds to the catalytic cysteine of EGFR comprises an electrophilic warhead and an alkyne moiety for the CLICK handle processing step. Purified human EGFR kinase was generated (FIG. 2A) and exposed to Ibrutinib-yne (FIG. 2B). […] The target peptide detected by this protocol LLGIC(Alk)[…]) (SEQ ID NO:1) was detected by LC-MS (FIGS. 5A-5C).

## Ibrutinib-yne
After TCEP/chloroacetamide capping and trypsin digestion, vs DMSO control
  LC-MS detection of target peptide LLGIC(Alk)[…] (SEQ ID NO:1): detected only in its modified state
Probe or DMSO control incubated with EGFR at 37° C. for 1 hour, PAGE
  probe-EGFR kinase complex observed by Coomassie Blue staining and fluorescent imaging (AF647-azide): desired complex was observed; also recorded: only the protein bearing Ibrutinib-yne reacted with AF647-azide
